According to ChEMBL document CHEMBL4339208, “6-Bromoindolglyoxylamido derivatives as antimicrobial agents and antibiotic enhancers” (Bioorg Med Chem, 2019):
Converted amounts (≈) assume the structure as drawn. The source made the active and inactive calls. The rule behind the calls is not given here.

What was measured:
[1] = system: Pseudomonas aeruginosa; test: Disruption of membrane integrity in Pseudomonas aeruginosa PAO1 assessed as increase in extracellular ATP level at 10 uL by luciferin-luciferase reagent based luminescence assay; type: functional, organism-based
[2] = system: Pseudomonas aeruginosa; test: Disruption of membrane integrity in Pseudomonas aeruginosa PAO1 assessed as decrease in intracellular ATP level at 1% by luciferin-luciferase reagent based luminescence assay relative to control; type: functional, organism-based; parameters: scale not given: the % may be the effect or the level left
[3] = system: Staphylococcus aureus; test: Disruption of membrane integrity in Staphylococcus aureus ATCC 25923 assessed as increase in extracellular ATP level at 10 uL by luciferin-luciferase reagent based luminescence assay; type: functional, organism-based
[4] = system: Escherichia coli; test: Antibacterial activity against Escherichia coli ATCC 25922 measured after 18 hrs by broth dilution method; type: functional; conditions: ATCC 25922, 18 h
[5] = system: Pseudomonas aeruginosa; test: Antibacterial activity against Pseudomonas aeruginosa ATCC 27853 measured after 18 hrs by broth dilution method; type: functional; conditions: ATCC 27853, 18 h
[6] = system: Klebsiella pneumoniae; test: Antibacterial activity against Klebsiella pneumoniae ATCC 700603 measured after 18 hrs by resazurin dye based assay; type: functional; conditions: Klebsiella pneumoniae, 700603, 18 h
[7] = system: Acinetobacter baumannii; test: Antibacterial activity against Acinetobacter baumannii ATCC 19606 measured after 18 hrs by resazurin dye based assay; type: functional; conditions: ATCC 19606 = CIP 70.34 = JCM 6841, 18 h
[8] = system: Pseudomonas aeruginosa; test: Potentiation of doxycycline-induced antibacterial activity against Pseudomonas aeruginosa ATCC 27853 assessed as concentration required to restore 2 ug/ml doxycycline activity measured after 18 hrs; type: functional
[9] = system: Escherichia coli; test: Potentiation of doxycycline-induced antibacterial activity against Escherichia coli ATCC 25922 assessed as concentration required to restore 2 ug/ml doxycycline activity measured after 18 hrs; type: functional
[10] = system: Klebsiella pneumoniae; test: Potentiation of doxycycline-induced antibacterial activity against Klebsiella pneumoniae ATCC 700603 assessed as concentration required to restore 2 ug/ml doxycycline activity measured after 18 hrs; type: functional
[11] = system: Acinetobacter baumannii; test: Potentiation of doxycycline-induced antibacterial activity against Acinetobacter baumannii ATCC 19606 assessed as concentration required to restore 2 ug/ml doxycycline activity measured after 18 hrs; type: functional, ATCC 19606 = CIP 70.34 = JCM 6841
[12] = system: Staphylococcus aureus; test: Antibacterial activity against Staphylococcus aureus ATCC 25923 measured after 18 hrs by broth dilution method; type: functional; conditions: ATCC 25923, 18 h
[13] = system: Staphylococcus intermedius; test: Antibacterial activity against Staphylococcus intermedius 1051997 measured after 18 hrs by broth dilution method; type: functional; conditions: Staphylococcus intermedius, 1051997, 18 h
[14] = system: Pseudomonas aeruginosa; test: Potentiation of chloramphenicol-induced antibacterial activity against Pseudomonas aeruginosa ATCC 27853 assessed as concentration required to restore 2 ug/ml chloramphenicol activity measured after 18 hrs; type: functional
[15] = system: Escherichia coli; test: Potentiation of chloramphenicol-induced antibacterial activity against Escherichia coli ATCC 25922 assessed as concentration required to restore 2 ug/ml chloramphenicol activity measured after 18 hrs; type: functional
[16] = system: Klebsiella pneumoniae; test: Potentiation of chloramphenicol-induced antibacterial activity against Klebsiella pneumoniae ATCC 700603 assessed as concentration required to restore 2 ug/ml chloramphenicol activity measured after 18 hrs; type: functional
[17] = system: Acinetobacter baumannii; test: Potentiation of chloramphenicol-induced antibacterial activity against Acinetobacter baumannii ATCC 19606 assessed as concentration required to restore 2 ug/ml chloramphenicol activity measured after 18 hrs; type: functional, ATCC 19606 = CIP 70.34 = JCM 6841
[18] = system: Candida albicans; test: Antifungal activity against Candida albicans ATCC 90028 measured after 36 hrs; type: functional; conditions: ATCC 90028, 36 h
[19] = system: Cryptococcus neoformans; test: Antifungal activity against Cryptococcus neoformans ATCC 208821 measured after 36 hrs by resazurin dye based assay; type: functional; conditions: ATCC 208821, 36 h
[20] = system: Klebsiella pneumoniae; test: Antibacterial activity against Klebsiella pneumoniae ATCC 700603 at 32 ug/ml measured after 18 hrs by resazurin dye based assay; type: functional, organism-based
[21] = system: Acinetobacter baumannii; test: Antibacterial activity against Acinetobacter baumannii ATCC 19606 at 32 ug/ml measured after 18 hrs by resazurin dye based assay; type: functional, organism-based; conditions: ATCC 19606 = CIP 70.34 = JCM 6841
[22] = (§1) Cytotoxicity against HEK293 cells measured after 20 hrs by resazurin dye based fluorescence assay; type: cell-based, Homo sapiens; conditions: human, HEK293 cells
[23] = system: Erythrocyte; test: Hemolytic activity against human RBC incubated for 10 mins under shaking condition measured after 1 hr; type: ADME, cell-based
[24] = system: Erythrocyte; test: Hemolytic activity against human RBC at 32 ug/ml incubated for 10 mins under shaking condition measured after 1 hr; type: ADME, cell-based
[25] = system: Pseudomonas aeruginosa; test: Disruption of membrane integrity in Pseudomonas aeruginosa PAO1 assessed as increase in extracellular ATP level by luciferin-luciferase reagent based luminescence assay; type: functional, organism-based
[26] = system: Pseudomonas aeruginosa; test: Disruption of membrane integrity in Pseudomonas aeruginosa PAO1 assessed as decrease in intracellular ATP level at 10 ug/ml by luciferin-luciferase reagent based luminescence assay relative to control; type: functional; parameters: scale not given: the % may be the effect or the level left
[27] = system: Staphylococcus aureus; test: Disruption of membrane integrity in Staphylococcus aureus ATCC 25923 assessed as increase in extracellular ATP level by luciferin-luciferase reagent based luminescence assay; type: functional, organism-based
[28] = system: Pseudomonas aeruginosa; test: Induction of membrane depolarization in Pseudomonas aeruginosa PAO1 at 10.4 uM measured after 15 mins by DiSC3(5) dye based spectrofluorometric method; type: functional, organism-based
[29] = system: Staphylococcus aureus; test: Induction of membrane depolarization in Staphylococcus aureus ATCC 25923 at 10.4 uM measured after 15 mins by DiSC3(5) dye based spectrofluorometric method; type: functional, organism-based
[30] = system: Staphylococcus aureus; test: Induction of membrane depolarization in Staphylococcus aureus ATCC 25923 measured after 15 mins by DiSC3(5) dye based spectrofluorometric method; type: functional, organism-based
[31] = system: Pseudomonas aeruginosa; test: Potentiation of erythromycin-induced antibacterial activity against Pseudomonas aeruginosa ATCC 27853 assessed as concentration required to restore 2 ug/ml erythromycin activity measured after 18 hrs; type: functional
[32] = system: Escherichia coli; test: Potentiation of erythromycin-induced antibacterial activity against Escherichia coli ATCC 25922 assessed as concentration required to restore 2 ug/ml erythromycin activity measured after 18 hrs; type: functional
[33] = system: Klebsiella pneumoniae; test: Potentiation of erythromycin-induced antibacterial activity against Klebsiella pneumoniae ATCC 700603 assessed as concentration required to restore 2 ug/ml erythromycin activity measured after 18 hrs; type: functional
[34] = system: Acinetobacter baumannii; test: Potentiation of erythromycin-induced antibacterial activity against Acinetobacter baumannii ATCC 19606 assessed as concentration required to restore 2 ug/ml erythromycin activity measured after 18 hrs; type: functional, ATCC 19606 = CIP 70.34 = JCM 6841
[35] = system: Pseudomonas aeruginosa; test: Potentiation of nalidixic acid-induced antibacterial activity against Pseudomonas aeruginosa ATCC 27853 assessed as concentration required to restore 2 ug/ml nalidixic acid activity measured after 18 hrs; type: functional
[36] = system: Escherichia coli; test: Potentiation of nalidixic acid-induced antibacterial activity against Escherichia coli ATCC 25922 assessed as concentration required to restore 2 ug/ml nalidixic acid activity measured after 18 hrs; type: functional
[37] = system: Klebsiella pneumoniae; test: Potentiation of nalidixic acid-induced antibacterial activity against Klebsiella pneumoniae ATCC 700603 assessed as concentration required to restore 2 ug/ml nalidixic acid activity measured after 18 hrs; type: functional
[38] = system: Acinetobacter baumannii; test: Potentiation of nalidixic acid-induced antibacterial activity against Acinetobacter baumannii ATCC 19606 assessed as concentration required to restore 2 ug/ml nalidixic acid activity measured after 18 hrs; type: functional, ATCC 19606 = CIP 70.34 = JCM 6841
[39] = system: HEK293; test: as §1; type: cell-based, Homo sapiens; conditions: Homo sapiens, HEK293, 20 h

With Cetyl trimethylammonium bromide the Activity [1] was “Active”, the Activity [2] was 10% and the Activity [3] was “Active”.

In the case of `C[C@H]1c2cccc(O)c2C(=O)C2=C(O)[C@]3(O)C(=O)C(C(N)=O)=C(O)[C@@H](N(C)C)[C@@H]3[C@@H](O)[C@@H]21.O` [DOXYCYCLINE], the MIC [4] is reported as 50 µM, the MIC [5] is reported as 25 µM and the MIC [6] is reported as 25 µM. For the same compound, the MIC [7] was 12.5 µM, the Activity [8] was 12.5 µM and the Activity [9] was 6.25 µM. The Activity [10] was 6.25 µM and the Activity [11] was 25 µM.

With `O=C(N[C@H](CO)[C@H](O)c1ccc([N+](=O)[O-])cc1)C(Cl)Cl` [CHLORAMPHENICOL] the MIC [12] was 1.5 to 3 µM (≈ 0.485 to 0.969 µg/mL), the MIC [13] was 3 to 6 µM (≈ 0.969 to 1.94 µg/mL) and the MIC [4] was > 200 µM. The MIC [5] was > 200 µM, the MIC [6] was 50 µM (≈ 16.2 µg/mL) and the MIC [7] was > 200 µM. The Activity [14] was >200 µM, the Activity [15] was >200 µM and the Activity [16] was 200 µM. The Activity [17] was >200 µM.

Compound `O=C(NCCCNCCCCNCCCNC(=O)C(=O)c1c[nH]c2cc(Br)ccc12)C(=O)c1c[nH]c2cc(Br)ccc12` has an MIC [12] of 6.25 µM (≈ 4.39 µg/mL), an MIC [13] of 3.12 µM (≈ 2.2 µg/mL) and an MIC [4] of 100 µM (≈ 70.2 µg/mL). The MIC [5] was 100 µM (≈ 70.2 µg/mL), the MIC [6] was > 34 µM and the MIC [7] was > 34 µM. For the same compound, the MIC [18] was 17.2 µM (≈ 12.1 µg/mL), the MIC [19] was 1.1 µM (≈ 0.773 µg/mL) and the Activity [20] was “inactive”. The Activity [21] was “inactive”, the Activity [8] was 6.25 µM and the CC50 at 20 h [22] was 5.06 µM. The HC10 [23] was > 34 µM, the Activity [24] was “Non-Toxic” and the Activity [25] was “Dose-dependent effect”. The Activity [26] was 10%, the Activity [27] was “Dose-dependent effect” and the Activity [28] was “Active”. For the same compound, the Activity [29] was “Active” and the Activity [30] was “Dose-dependent effect”.

For `CC[C@H]1OC(=O)[C@H](C)[C@@H](O[C@H]2C[C@@](C)(OC)[C@@H](O)[C@H](C)O2)[C@H](C)[C@@H](O[C@@H]2O[C@H](C)C[C@H](N(C)C)[C@H]2O)[C@](C)(O)C[C@@H](C)C(=O)[C@H](C)[C@@H](O)[C@]1(C)O` [ERYTHROMYCIN], the MIC [4] was > 200 µM, the MIC [5] was > 200 µM and the MIC [6] was > 200 µM. It also gave an MIC [7] of 200 µM (≈ 147 µg/mL), an Activity [31] of 200 µM and an Activity [32] of 50 µM. For the same compound, the Activity [33] was 50 µM and the Activity [34] was 25 µM.

In the case of `CCn1cc(C(=O)O)c(=O)c2ccc(C)nc21` [NALIDIXIC ACID], the MIC [4] is reported as > 200 µM, the MIC [5] is reported as > 200 µM and the MIC [6] is reported as 100 µM (≈ 23.2 µg/mL). The MIC [7] was > 200 µM, the Activity [35] was 50 µM and the Activity [36] was >200 µM. It also gave an Activity [37] of 25 µM and an Activity [38] of 200 µM.

Compound `CC/C(=C(\c1ccccc1)c1ccc(OCCN(C)C)cc1)c1ccccc1` [TAMOXIFEN] has an IC50 [39] of 24 µM.
